Values quoted from earlier work as cited in publication PMC7235863, “Benzamide Derivatives Targeting the Cell Division Protein FtsZ: Modifications of the Linker and the Benzodioxane Scaffold and Their Effects on Antimicrobial Activity” (Antibiotics, 2020).
Values after ≈ are worked out from the molar mass of the structure shown.

Columns and labels:
[1] = test system: Methicillin Sensitive S. aureus; details: Methicillin Sensitive S. aureus; ref 10 (Z2, Z3), 11 (TXY436), 12 (I, II); cited from earlier work
[2] = test system: E. coli WildType; design: method as in earlier work; details: ref 10 (Z2, Z3), 11 (TXY436), 12 (I, II); cited from earlier work
[3] = test system: E. coli AcrAB–; details: ref 10 (Z2, Z3), 11 (TXY436), 12 (I, II); cited from earlier work
[4] = test system: selected Gram-negative strains; design: method as in PMID 24637241; details: after genetic inactivation of AcrAB or its inhibition by PaβN ref 11; cited from earlier work
[5] = test system: E. coli ATCC 25922; design: method as in PMID 31750973; details: in-house reference compounds ref 12; cited from earlier work
[6] = test system: ESBL E. coli; design: method as in PMID 31750973; details: in-house reference compounds ref 12; cited from earlier work
[7] = test system: E. coli N43; design: method as in PMID 31750973; details: E. coli N43 (AcrAB knockout); in-house reference compounds ref 12; cited from earlier work
[8] = test system: Sa cells; design: method as in PMID 31750973; details: Sa cells incubated with the compounds ref 12; cited from earlier work

## CC[n+]1c(/C=C/N(C)c2ccccc2)n(-c2ccccc2)c2ccc(-c3nc4ccccc4s3)cc21 [Compound Z2]
[1]
  MIC: 0.6 µg/mL
[2]
  MIC: 20 µg/mL
[3]
  MIC: 2.5 µg/mL

## CN(C)CNC(=O)c1c(F)ccc(OCc2nc3cc(Cl)cnc3s2)c1F [TXY436]
[1]
  MIC: 1.0 µg/mL (≈ 2.42 µM)
[3]
  MIC: 8 µg/mL (≈ 19.4 µM)
[4]
  MIC: 8 µg/mL (≈ 19.4 µM)

## CSc1nc(-c2ccc3c(c2)OC(COc2ccc(F)c(C(N)=O)c2F)CO3)no1 (stereo not drawn) [I]
[5]
  MIC: >100 µg/mL
[6]
  MIC: >100 µg/mL
[7]
  MIC: 16 µg/mL (≈ 36.7 µM)
[1]
  MIC: 0.6 µg/mL (≈ 1.38 µM)
[3]
  MIC: 16 µg/mL (≈ 36.7 µM)
[8]
  Morphometric analysis by TEM: significant elongation in cellular dimension, bacterial swelling and cell desegregation
